From ChEMBL document CHEMBL1128207 (J Med Chem, 1995)

Molecular target: Progesterone receptor (Oryctolagus cuniculus) (UniProt P06186)
Experiment: Binding affinity towards rabbit progesterone receptor; call rule not given here

| IC50 [nM] | SMILES |
| --- | --- |
| 100 | O=C(c1ccc(Cl)c(Cl)c1)N1CCCC(c2ccc(Cl)c(Cl)c2)=N1 |
| 270 | O=C(c1ccc([N+](=O)[O-])cc1)N1CCCC(c2ccc(Cl)cc2)=N1 |
| 470 | O=C(c1cc(Cl)cc(Cl)c1)N1CCCC(c2ccc(Br)cc2)=N1 |
| 1020 | O=C(c1ccc([N+](=O)[O-])cc1)N1CCCC(c2ccc(F)cc2)=N1 |
| 4000 | O=C(c1ccc(Cl)c(Cl)c1)N1CCCC(c2ccccc2)=N1 |
| 4000 | O=C(c1ccc(Cl)cc1)N1CCCC(c2ccc(Cl)cc2)=N1 |
| 250 | O=C(c1ccc(Cl)c(Cl)c1)N1CCCC(c2ccc(F)cc2)=N1 |
| 100 | O=C(c1ccc([N+](=O)[O-])cc1)N1CCCC(c2ccc(Cl)c(Cl)c2)=N1 |

Molecular target: Progesterone receptor (Oryctolagus cuniculus) (UniProt P06186)
Experiment: Binding affinity towards rabbit progesterone receptor; not active

| SMILES | IC50 |
| --- | --- |
| Cc1ccc(C(=O)N2CCCC(c3ccc(Cl)cc3)=N2)cc1 | Not Active |
| O=C(c1ccccc1)N1CCCC(c2ccccc2)=N1 | Not Active |
| CC(C)(C)c1ccc(C(=O)N2CCCC(c3ccc(Cl)cc3)=N2)cc1 | Not Active |
| O=C(c1ccc(Cl)cc1)N1CCCC(c2ccccc2)=N1 | Not Active |
| O=C(c1ccccc1)N1CCCC(c2ccc(Cl)cc2)=N1 | Not Active |
| O=C(c1ccc(Br)cc1)N1CCCC(c2ccccc2)=N1 | Not Active |
| Cc1ccc(C(=O)N2CCCC(c3ccccc3)=N2)cc1 | Not Active |
| CC(C)(C)c1ccc(C(=O)N2CCCC(c3ccccc3)=N2)cc1 | Not Active |

Next, values leading:

| IC50 | SMILES |
| --- | --- |
| Not Active | COc1ccc(C2=NN(C(=O)c3ccc(Cl)cc3)CCC2)cc1 |
| Not Active | COc1ccc(C2=NN(C(=O)c3ccc(C(C)(C)C)cc3)CCC2)cc1 |
| Not Active | COc1ccc(C(=O)N2CCCC(c3ccccc3)=N2)cc1 |
| Not Active | O=C(c1cccc(Cl)c1)N1CCCC(c2ccccc2)=N1 |
| Not Active | COc1ccc(C2=NN(C(=O)c3ccc(Cl)c(Cl)c3)CCC2)cc1 |
| Not Active | COc1ccc(C(=O)N2CCCC(c3ccc(Cl)cc3)=N2)cc1 |
| Not Active | COc1ccc(C2=NN(C(=O)c3ccc(Br)cc3)CCC2)cc1 |
| Not Active | COc1ccc(C2=NN(C(=O)c3ccccc3)CCC2)cc1 |
| Not Active | COc1ccc(C(=O)N2CCCC(c3ccc(OC)cc3)=N2)cc1 |
| Not Active | COc1ccc(C2=NN(C(=O)c3cccc(Cl)c3)CCC2)cc1 |
| Not Active | COc1ccc(C2=NN(C(=O)c3ccc(C)cc3)CCC2)cc1 |
| Not Active | O=C(c1cccc(Cl)c1)N1CCCC(c2ccc(Cl)cc2)=N1 |
